The target of the test is T1, Bcl-2-like protein 2 (Homo sapiens, UniProt Q92843).
T1 sequence (Q92843 whole entry): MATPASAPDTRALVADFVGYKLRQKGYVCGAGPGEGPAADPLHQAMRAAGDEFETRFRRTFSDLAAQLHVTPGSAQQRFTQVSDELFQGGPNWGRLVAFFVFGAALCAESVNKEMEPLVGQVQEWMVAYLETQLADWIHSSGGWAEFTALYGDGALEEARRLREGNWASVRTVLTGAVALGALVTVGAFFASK
The test can be described thus: modulators of Bim-Bcl-W protein interaction, dose response, biochemical, multiplexed, bead-based flow cytometry, fluorescence (AID 1330).

Setting [1] is: inactive by the depositor's call.

`Clc1nc(NCc2cccnc2)nc(N2CCOCC2)n1` [MLS000121154] had an EC50 under setting [1] of 18.5 µM.

`O=[N+]([O-])c1ccc(N=NCc2ccc(O)c(O)c2O)c(S(=O)(=O)N2CCOCC2)c1` [MLS000336720] displayed an EC50 of 3.52 µM.

Take `Cc1ccc(NC2=C(NC(=O)c3ccccc3)C(=O)c3ccccc3C2=O)cc1Cl` [MLS000392290]: under setting [1], the concentration giving a half-maximal response (EC50) is 4.34 µM. This counts as single-digit micromolar.

For the compound `O=C1C=CC(C=NNC(=O)C(=Cc2ccc([N+](=O)[O-])cc2)NC(=O)c2ccccc2)C(O)=C1O` (stereo unspecified) [MLS000530401], a half-maximal effect (EC50) was put at 4.76 µM.

`COc1ccc2c3c(cccc13)N(C)N=C2C` [MLS000554700] came in with an EC50 of 1.56 µM.

Under setting [1], `CCOc1cccc(CNc2ccc(O)cc2)c1OCc1ccccc1Cl` [MLS000580486] yielded an EC50 of 6.13 µM.

`COCCCn1c(N)c(C(=O)Nc2sc3c(c2C(=O)OC)CCCC3)c2nc3ccccc3nc21` [MLS000595323]: under setting [1], the response was half-maximal at 2.34 µM (EC50).

Under setting [1], `COc1cc2nc(=S)[nH]c(NCCc3ccc(S(N)(=O)=O)cc3)c2cc1OC` [MLS000674601] yielded an EC50 of 0.67 µM.

Consider `COc1ccc(C)cc1-n1c(=O)c2ccccc2c2ccccc2c1=O` [MLS000682999], for which, under setting [1], it took 24.2 µM to reach a half-maximal effect (EC50).

`Fc1ccc(C2=Nc3cccc4cccc(c34)N2)cc1` [MLS000687139] registered an EC50 under setting [1] of 9.76 µM.

As to `OCCN1CCN(CCCc2c3c(cc4c2CCC4)CCC3)CC1` [MLS000698424], the midpoint of the response, the EC50, lay at 16.6 µM.

For the compound `COc1ccc(/C=C/C(=O)c2cc(Br)ccc(=O)c2O)cc1` [MLS000702099], the EC50 under setting [1] turned out to be 27.5 µM.

Under setting [1], `CCOC(=O)c1c(O)nc2ccc(Cl)c3c2c1-c1ccccc1C3=O` [MLS000704595] gave an EC50 of 6.14 µM. Against the preceding compound, the EC50 is about 4.5-fold lower.

Under setting [1], `Cc1ccc(/C=C/C(=O)c2ccccc(=O)c2O)cc1C` [MLS000756172] returned an EC50 of 27.9 µM.

Consider `COc1cccc2c(SCC(=O)NN=Cc3ccc(O)cc3O)cc(C)nc12` [N'-[(E)-(2-hydroxy-4-oxo-1-cyclohexa-2,5-dienylidene)methyl]-2-[(8-methoxy-2-methyl-4-quinolinyl)thio]acetohydrazide], for which the EC50 came to 55.2 µM.

Take `c1ccc(Nc2cccc(Nc3ccccc3)n2)cc1` [N,N'-diphenyl-2,6-pyridinediamine]: the midpoint of the response, the EC50, lay at 2.58 µM.

Regarding `COc1cc(C=NNC(=O)CN(Cc2ccco2)S(=O)(=O)c2ccccc2)ccc1O` [N-(2-furanylmethyl)-N-[2-[[(E)-(3-methoxy-4-oxo-1-cyclohexa-2,5-dienylidene)methyl]hydrazo]-2-oxoethyl]benzenesulfonamide], a half-maximal effect (EC50) was put at 15.3 µM.

`CC(=O)c1ccc(NC(=O)c2ccc3nc(-c4ccco4)c(-c4ccco4)nc3c2)cc1` [N-(4-acetylphenyl)-2,3-di-2-furyl-6-quinoxalinecarboxamide]: the EC50 under setting [1] came to 3.97 µM.

`COc1cccc(CN=Nc2nn3cnnc3c3ccccc23)c1` [N-[1-(3-Methoxy-phenyl)-meth-(E)-ylidene]-N'-[1,2,4]triazolo[3,4-a]phthalazin-6-yl-hydrazine] returned an EC50 of 2.43 µM. This counts as single-digit micromolar.

For the compound `COc1ccc(CCNC(=O)c2ccc3nc(-c4ccco4)c(-c4ccco4)nc3c2)cc1OC` [N-[2-(3,4-dimethoxyphenyl)ethyl]-2,3-di-2-furylquinoxaline-6-carboxamide], the response under setting [1] was half-maximal at 12.2 µM (EC50).

In the case of `COc1ccccc1NC1=C(NC(C)=O)C(=O)c2ccccc2C1=O` [N-[3-(2-methoxyanilino)-1,4-dioxonaphthalen-2-yl]acetamide], the EC50 under setting [1] stood at 4 µM.

Under setting [1], `CC(=O)NC1=C(NC2CCS(=O)(=O)C2)C(=O)c2ccccc2C1=O` (stereo unspecified) [N-[3-[(1,1-dioxothiolan-3-yl)amino]-1,4-dioxonaphthalen-2-yl]acetamide] displayed an EC50 of 3.49 µM.

For the compound `Cc1cccc(C(=O)/N=c2\c(C#N)cc3c(=O)n4cccc(C)c4nc3n2Cc2ccco2)c1` [N-[3-cyano-1-(furan-2-ylmethyl)-10-methyl-5-oxodipyrido[3,4-c:1',2'-f]pyrimidin-2-ylidene]-3-methylbenzamide], a half-maximal effect under setting [1] (EC50) was put at 41.3 µM.

In turn, `COc1cc(CNc2ccc(N3CCCC3)cc2)cc(Cl)c1OC` [N-[(3-chloranyl-4,5-dimethoxy-phenyl)methyl]-4-pyrrolidin-1-yl-aniline] showed an EC50 under setting [1] of 3.72 µM.

Take `CCC(=O)N(CC)C1C(=O)C(=O)c2ccccc2C1=O` (stereo unspecified) [N-ethyl-N-(1-hydroxy-3,4-dioxo-2-naphthalenyl)propanamide]: the response was half-maximal at 0.92 µM (EC50).

Take `Cc1ccc(C=NN(C)C2=NS(=O)(=O)c3ccccc32)o1` [N-methyl-N-[(5-methyl-2-furanyl)methylideneamino]-1,1-dioxo-1,2-benzothiazol-3-amine]: the response under setting [1] was half-maximal at 16.6 µM (EC50). In other words, the double-digit micromolar range.

In turn, `CC(C)(C)NC(=O)COc1ccc(CNc2ccc3[nH]c(O)nc3c2)cc1` [N-tert-butyl-2-[4-[[(2-oxidanylidene-1,3-dihydrobenzimidazol-5-yl)amino]methyl]phenoxy]ethanamide] came in with an EC50 under setting [1] of 6.29 µM.

As for `COCCCNc1nc(S)nc2cc(OC)c(OC)cc12` [SMR000026607], under setting [1], the midpoint of the response, the EC50, lay at 3.68 µM.

As to `O=C1c2ccccc2-c2onc3ccc(NCCCn4ccnc4)c1c23` [SMR000044769], it took 1.11 µM to reach a half-maximal effect (EC50).

`CSc1nnc2c3cc(C)ccc3n(Cc3ccccc3)c2n1` [SMR000046397]: the response under setting [1] was half-maximal at 29.6 µM (EC50).

In turn, `c1ccc(-c2nc(N3CCCCCC3)c3ccccc3n2)nc1` [SMR000046752] gave an EC50 under setting [1] of 21.7 µM.

Under setting [1], `Nc1c(C(=O)NCc2ccco2)sc2nc3c(cc12)C(=O)CCC3` [SMR000072940] registered an EC50 of 31.8 µM.

In the case of `O=C(Nc1ccc2nc(-c3ccco3)c(-c3ccco3)nc2c1)NC1CC1` [SMR000118524], the EC50 under setting [1] came out at 16.4 µM.

Turning to `O=C(NCCO)c1ccc2nc(-c3ccco3)c(-c3ccco3)nc2c1` [SMR000121771], the EC50 under setting [1] came to 11.2 µM. This EC50 and that of the compound before are within 1.5-fold of each other.

For the compound `O=C(Nc1cccc(C(F)(F)F)c1)c1ccc2nc(-c3ccco3)c(-c3ccco3)nc2c1` [SMR000142217], the response was half-maximal at 9.02 µM (EC50). In other words, the single-digit micromolar range.

Under setting [1], `COC(=O)c1c(C(=O)OC)c2cccc3cc(-c4ccccc4)c4ccc1c4n32` [SMR000161417] had an EC50 of 1.31 µM.

`O=c1[nH]c2ccc(N=Cc3c(O)ccc4cc(Br)ccc34)cc2[nH]1` [SMR000171789] displayed an EC50 of 4.15 µM. This counts as single-digit micromolar.

In the case of `Nc1ccc(C2=Nc3cccc4cccc(c34)N2)cc1` [SMR000175908], under setting [1], the EC50 was 15.7 µM.

`C#CCn1cc(C=C2C(=O)c3ccccc3C2=O)c2ccccc21` [SMR000196125] returned an EC50 of 9.02 µM.

For the compound `CN(N=Cc1cccnc1)C1=NS(=O)(=O)c2ccccc21` [SMR000207578], the EC50 under setting [1] was determined as 17.3 µM.

As to `CNCc1ccccc1Sc1ccc(O)c(O)c1` [SMR000230497], the EC50 is 42.4 µM. In other words, the double-digit micromolar range.

Under setting [1], `Oc1ccc(NCc2ccccc2OCc2ccccc2)cc1` [SMR000231540] yielded an EC50 of 2.98 µM.

With `COc1ccc(OC)c(-n2c(=O)c3ccccc3c3ccccc3c2=O)c1` [SMR000236434], the EC50 under setting [1] is 18 µM.

The compound `CN=c1scc(-c2cccs2)n1N=Cc1ccc(O)c(O)c1O` [SMR000242177] gave an EC50 of 5.05 µM.

The compound `Nc1c(C(=O)NCC2CCCO2)sc2nc3c(c(-c4ccco4)c12)CC/C3=C\c1ccco1` (stereo unspecified) [SMR000259502] had an EC50 of 2.36 µM.

Take `Nc1c(C(=O)NC2CC2)sc2nc3c(c(-c4ccco4)c12)CC/C3=C/c1ccco1` [SMR000259554]: the response was half-maximal at 2.6 µM (EC50).

The compound `O=C1c2ccccc2-c2onc3ccc(N4CCCC4)c1c23` [SMR000279741] returned an EC50 under setting [1] of 10.9 µM. In other words, the double-digit micromolar range.

`COc1cc(OC)c([N+](=O)[O-])cc1[CH+][N-]NC(=O)c1ccncc1` [SMR000306621] showed an EC50 under setting [1] of 25.7 µM.

`CC(=NNC(=O)c1cc(O)c(O)c(O)c1)c1ccc([N+](=O)[O-])cc1` [SMR000312589] yielded an EC50 of 4.03 µM.

Under setting [1], `O=C(CSc1ccc2nnc(-c3ccncc3)n2n1)Nc1nccs1` [SMR000320332] gave a half-maximal effective concentration (EC50) of 11.1 µM.

`Cc1nnc2ccc(-c3cccc(NC(=O)c4ccco4)c3)nn12` [SMR000324305] returned an EC50 of 7.89 µM.

Take `O=C(Nc1cccc(Cl)c1)Nc1ccnc(-c2cccnc2)n1` [SMR000337179]: a half-maximal response under setting [1] (EC50) required 1.59 µM.

Take `CCN1/C(=C/C(C)=C/c2sc3ccccc3[n+]2CC)Sc2ccccc21` [SMR000354813]: the response was half-maximal at 37.5 µM (EC50).

With `Cc1ccnc(Nc2nc(-c3c(C)nc4sccn34)cs2)c1` [[4-(6-Methyl-imidazo[2,1-b]thiazol-5-yl)-thiazol-2-yl]-(4-methyl-pyridin-2-yl)-amine], the EC50 under setting [1] is 15.7 µM.

Under setting [1], `CCOC(=O)c1nc(Nc2ccc(C(=O)OC)cc2)c2ccccc2n1` [ethyl 4-(4-methoxycarbonylanilino)quinazoline-2-carboxylate] had an EC50 of 16.7 µM.

Under setting [1], `CN(N=Cc1ccncc1)C1=NS(=O)(=O)c2ccccc21` [isonicotinaldehyde (1,1-dioxido-1,2-benzisothiazol-3-yl)(methyl)hydrazone] showed an EC50 of 2.73 µM. This EC50 is about 6.1-fold lower than that of the compound before.

The values above are taken from BindingDB's records for doi:10.7270/Q2BR8QM3 (Nmmlsc, 2008).
